In patent US20240366599A1, “HUMAN EFFICACIOUS DOSE AND DOSAGE SCHEDULE OF SPR720” (SPERO THERAPEUTICS, INC., priority 2021, published 2024):

Legend:
Assay type in all cases: in vivo, human
[1] = Single ascending dose (SAD) study: safety and tolerability
Method: (§1) The following study was conducted in healthy volunteers to evaluate the safety, tolerability, and pharmacokinetics of SPR720/SPR719. The study included 7 SAD cohorts, of which one was a food effect cohort. SPR720 or placebo (n=8/cohort, 3:1 randomization) were administered to subjects at doses of 100 to 2000 mg in the fasted or fed state. The cohorts administered SPR720 in the fed state were administered 1000 mg or 500 mg (healthy elderly cohort) SPR720. A schematic of the study design appears in FIG. 1.

[2] = Multiple ascending dose (MAD) study: safety and tolerability
Method: The multiple ascending dose study utilized 5 cohorts of 8 subjects. Three cohorts were administered a total daily dose of 500 mg to 1500 mg in the fasted state for 7 days. Two cohorts were administered a total daily dose of 500 mg or 1000 mg in the fed state for 14 days. Safety was also monitored throughout the study. […] This conclusion was further supported by stable SPR719 trough concentrations by Day 7 (data not shown). Mean plasma concentration/time curves are shown for the MAD cohorts at days 1 (FIG. 3A), 7 (FIG. 3B), and 14 (FIG. 3C). 2.

[3] = Single ascending dose (SAD) study: pharmacokinetics of SPR719 after oral SPR720; details: SPR720 1000 mg, fed vs fasted; considered non-clinically significant
Method: as §1

[4] = SAD Cohort 4, 1000 mg Fasted, N=6
[5] = MAD Cohort 1, 500 mg 7 days, fasted, N=6
[6] = MAD Cohort 2, 1000 mg 7 days, fasted, N=6
[7] = MAD Cohort 3, 750 mg q12 h 7 days, fasted, N=6
[8] = MAD Cohort 4, 500 mg 14 days, fed, N=6
[9] = MAD Cohort 5, 1000 mg 14 days, fed, N=6

## CCNC(=O)Nc1nc2cc(-c3cnc(C(C)(C)OP(=O)(O)O)cn3)c(F)c([C@H]3CCCO3)c2[nH]1 [SPR720, fobrepodacin]
[1]; SAD 500 mg Elderly, N=6
  Incidence of TEAE: Diarrhea: 0 Number (%) of Subjects
  Incidence of TEAE: Headache: 0 Number (%) of Subjects
  Incidence of TEAE: Nausea: 0 Number (%) of Subjects
  Incidence of TEAE: Vomiting: 0 Number (%) of Subjects
[1]; SAD 1500 mg cohort
  Subjects reporting TEAEs: 66.7%
[1]; SAD 2000 mg cohort
  Subjects reporting TEAEs: 100%
[1]; SAD Cohort 1, 100 mg, N=6
  Incidence of TEAE: Diarrhea: 0 Number (%) of Subjects
  Incidence of TEAE: Headache: 0 Number (%) of Subjects
  Incidence of TEAE: Nausea: 0 Number (%) of Subjects
  Incidence of TEAE: Vomiting: 0 Number (%) of Subjects
[1]; SAD Cohort 2, 250 mg, N=6
  Incidence of TEAE: Diarrhea: 0 Number (%) of Subjects
  Incidence of TEAE: Headache: 0 Number (%) of Subjects
  Incidence of TEAE: Nausea: 0 Number (%) of Subjects
  Incidence of TEAE: Vomiting: 0 Number (%) of Subjects
[1]; SAD Cohort 3, 500 mg, N=6
  Incidence of TEAE: Diarrhea: 1 (16.7) Number (%) of Subjects
  Incidence of TEAE: Headache: 0 Number (%) of Subjects
  Incidence of TEAE: Nausea: 0 Number (%) of Subjects
  Incidence of TEAE: Vomiting: 0 Number (%) of Subjects
[1]; [4]
  Incidence of TEAE: Diarrhea: 0 Number (%) of Subjects
  Incidence of TEAE: Headache: 1 (16.7) Number (%) of Subjects
  Incidence of TEAE: Nausea: 0 Number (%) of Subjects
  Incidence of TEAE: Vomiting: 0 Number (%) of Subjects
[1]; SAD Cohort 4, 1000 mg Fed, N=6
  Incidence of TEAE: Diarrhea: 0 Number (%) of Subjects
  Incidence of TEAE: Headache: 0 Number (%) of Subjects
  Incidence of TEAE: Nausea: 0 Number (%) of Subjects
  Incidence of TEAE: Vomiting: 0 Number (%) of Subjects
[1]; SAD Cohort 5, 1500 mg, N=6
  Incidence of TEAE: Diarrhea: 0 Number (%) of Subjects
  Incidence of TEAE: Headache: 3 (50.0) Number (%) of Subjects
  Incidence of TEAE: Nausea: 4 (66.7) Number (%) of Subjects
  Incidence of TEAE: Vomiting: 3 (50.0) Number (%) of Subjects
[1]; SAD Cohort 6, 2000 mg, N=6
  Incidence of TEAE: Diarrhea: 2 (33.3) Number (%) of Subjects
  Incidence of TEAE: Headache: 3 (50.0) Number (%) of Subjects
  Incidence of TEAE: Nausea: 5 (83.3) Number (%) of Subjects
  Incidence of TEAE: Vomiting: 5 (83.3) Number (%) of Subjects
[1]; SAD Overall SPR720, n=42
  Incidence of TEAE: Diarrhea: 3 (7.1) Number (%) of Subjects
  Incidence of TEAE: Headache: 7 (16.7) Number (%) of Subjects
  Incidence of TEAE: Nausea: 9 (21.4) Number (%) of Subjects
  Incidence of TEAE: Vomiting: 8 (19.0) Number (%) of Subjects
[1]; SAD overall, 18 of 42 subjects
  Subjects reporting TEAEs: 42.9%
[1]; SAD overall, 42 subjects
  Total number of TEAEs reported: 35
[1]; SAD study
  Serious adverse events: No serious adverse events
[1]; SAD, all TEAEs
  Severity of TEAEs: mild or moderate
[2]; MAD 1000 mg cohorts
  Subjects reporting TEAEs: 50.0%
[2]; MAD 1500 mg (750 mg q12h) cohort
  Subjects reporting TEAEs: 66.7%
[2]; [5]
  Incidence of TEAE: Abdominal Pain: 0 Number (%) of Subjects
  Incidence of TEAE: Diarrhea (first line): 2 (33.3) Number (%) of Subjects
  Incidence of TEAE: Diarrhea (second line): 0 Number (%) of Subjects
  Incidence of TEAE: Headache: 2 (33.3) Number (%) of Subjects
  Incidence of TEAE: Nausea: 2 (33.3) Number (%) of Subjects
  Incidence of TEAE: Vomiting: 1 (16.7) Number (%) of Subjects
[2]; [6]
  Incidence of TEAE: Abdominal Pain: 1 (16.7) Number (%) of Subjects
  Incidence of TEAE: Diarrhea (first line): 4 (66.7) Number (%) of Subjects
  Incidence of TEAE: Diarrhea (second line): 2 (33.3) Number (%) of Subjects
  Incidence of TEAE: Headache: 3 (50.0) Number (%) of Subjects
  Incidence of TEAE: Nausea: 1 (16.7) Number (%) of Subjects
  Incidence of TEAE: Vomiting: 2 (33.3) Number (%) of Subjects
[2]; [7]
  Incidence of TEAE: Abdominal Pain: 0 Number (%) of Subjects
  Incidence of TEAE: Diarrhea (first line): 4 (66.7) Number (%) of Subjects
  Incidence of TEAE: Diarrhea (second line): 1 (16.7) Number (%) of Subjects
  Incidence of TEAE: Headache: 2 (33.3) Number (%) of Subjects
  Incidence of TEAE: Nausea: 3 (50.0) Number (%) of Subjects
  Incidence of TEAE: Vomiting: 1 (16.7) Number (%) of Subjects
[2]; [8]
  Incidence of TEAE: Abdominal Pain: 0 Number (%) of Subjects
  Incidence of TEAE: Diarrhea (first line): 0 Number (%) of Subjects
  Incidence of TEAE: Diarrhea (second line): 0 Number (%) of Subjects
  Incidence of TEAE: Headache: 1 (16.7) Number (%) of Subjects
  Incidence of TEAE: Nausea: 0 Number (%) of Subjects
  Incidence of TEAE: Vomiting: 0 Number (%) of Subjects
[2]; [9]
  Incidence of TEAE: Abdominal Pain: 1 (16.7) Number (%) of Subjects
  Incidence of TEAE: Diarrhea (first line): 3 (50.0) Number (%) of Subjects
  Incidence of TEAE: Diarrhea (second line): 0 Number (%) of Subjects
  Incidence of TEAE: Headache: 0 Number (%) of Subjects
  Incidence of TEAE: Nausea: 1 (16.7) Number (%) of Subjects
  Incidence of TEAE: Vomiting: 0 Number (%) of Subjects
[2]; MAD cohort 3 (750 mg q12h), asymptomatic, resolved without interventional treatment
  Subjects who discontinued study drug due to increased pancreatic enzymes: One
[2]; MAD overall, 18 of 30 subjects who received SPR720
  Subjects reporting TEAEs: 60.0%
[2]; MAD overall, 30 subjects
  Total number of TEAEs reported: 101
[2]; MAD study
  Serious adverse events: No serious adverse events
[2]; MAD, all TEAEs
  Severity of TEAEs: mild or moderate
[2]; Overall MAD SPR720, N=30
  Incidence of TEAE: Abdominal Pain: 2 (6.7) Number (%) of Subjects
  Incidence of TEAE: Diarrhea (first line): 13 (42.3) Number (%) of Subjects
  Incidence of TEAE: Diarrhea (second line): 3 (10.0) Number (%) of Subjects
  Incidence of TEAE: Headache: 8 (26.7) Number (%) of Subjects
  Incidence of TEAE: Nausea: 7 (23.3) Number (%) of Subjects
  Incidence of TEAE: Vomiting: 4 (13.3) Number (%) of Subjects
[2]; over 14 days of dosing
  Cases of Hy's Law: no cases
[2]; over 14 days of dosing, slight, asymptomatic and reversible
  Elevations in ALT: < 3 ×ULN
[2]; repeat daily oral doses up to 1000 mg over maximum duration of 14 days
  Tolerability: well-tolerated
[3]
  Food effect: plasma exposure after high fat meal relative to fasted state: no significant food effect
